From patent publication US9738612B2, “Methylacryloyl benzimidazolone derivative and anti-tumour use thereof” (SHANGHAI NATURE STANDARD R&D AND BIOTECH CO., LTD, priority 2014, dated 2017) come the findings set out here.

Each structure is given as a SMILES string.

The test system of experiment [1] is Akt phosphorylation at S473 site. Kind of experiment: ELISA (double antibody sandwich), Akt phosphorylation in IGF-1 stimulated A549 cells. The following applies: drug 1 h, then IGF-1 10 min, p-Akt (S473) ELISA. It counts as cell-based. As for the experimental part:
Establishment of ELISA screening method using a double antibody sandwich method: A549 cells (a lung cancer cell line, purchased from Chinese Academy of Sciences, Shanghai Institutes for Biological Sciences Cell Resource Center) were inoculated at certain densities in 12-well plates, and incubated at 37° C. in a carbon dioxide incubator overnight to let cells attach the plate wells. Meanwhile the Akt antibody was inoculated at a specific concentration in a highly-adsorbed microplate, and placed in a refrigerator at 4° C. The 12-well plates were washed with sterile PBS three times, then into which serum-free F12 was added, and incubated for 24 hours in a incubator. Then MK2206, Triciribine and FD series drugs were added into 12-well plates and worked for one hour, followed by adding 100 ng of IGF-1 and being stimulated for 10 minutes. The 12-well plates were washed with pre-cooled PBS three times, and 100 μl of RIPA lysis buffer was added into each well to lyse cells on ice for 20 minutes. The lysates were collected and added to the appropriate microplate (purchased from Santa Cruz biotechnology), which were shaken on ice. A p-Akt (S473) antibody (purchased Cell Signaling Technology, Inc.) was added into microplates. After shaking for a period of time, an anti-rabbit antibody (purchased from Cell Signaling Technology, Inc.) was added. The reaction was terminated with 2M sulfuric acid after TMB developed. Absorbance at 450 nm was measured on a microplate reader, and the inhibitory rate=[…], among which ODsample refers to the absorbance of the sample well, ODIGF refers the absorbance of the well with IGF only, OD—IGF refers the absorbance of the well withoutIGF.
In general terms: In an ELISA, binding on a coated surface is turned into a signal by an enzyme label.

Experiment [2] has as its system p-Akt (S473). Kind of experiment: Western blot, p-Akt (S473) in IGF stimulated A549 cells. It counts as cell-based. The following applies: compound 1 h, IGF 10 min, FIG. 1, in words. The procedure: A549 cells were seeded at a density of 2×10^5 cells/well into 12-well plates, and adhered overnight. Then the medium was discarded and the plates were washed three times with normal saline. After that, fresh serum-free medium was added to starve cells for 24 hours, compounds to be tested were added to work for 1 h, then IGF-I was added to stimulated for 10 min, followed byadding a lysis buffer on ice to lyse for half an hour. The cell lysates were collected and centrifuged at 20000×g at 4° C. for 10min, then the supernatant was collected. Protein was quantified by MicroBCA protein quantification Assay kit, and the protein concentration was normalized. The supernatant was mixed with the 4×SDS sample buffer [200 mM Tris.Cl (pH 6.8), 400 mM DTT, 8% SDS, 0.4% bromophenol blue, 40% glycerol] and boiled for 15 min. After cooling at room temperature, aliquots were loaded on polyacrylamide gel, and electrophoresed in Tris-glycine electrophoretic buffer (25 mM Tris, 250 mM glycine, 0.1% SDS) at 80-120 V for about 2 h. Proteins were transferred from the gel to a nitrocellulose membrane by a semi-dry method. Transferring conditions: transfer buffer (39 mM glycine, 48 mM Tris base, 0.037% SDS, 20% methanol); transfer current 25 mA; transfer time 2 h. After transfer, Ponceau S staining was used to determine the transfer efficiency and the positions of protein bands on the nitrocellulose membranes. After labeling the membrane was blocked with a blocking solution containing 5% nonfat-dried milk [5% nonfat-dried milk, 20 mM Tris-HCl (pH 7.2-7.4), 150 mM NaCl, 0.1% (v/v) Tween 20] on a shaker at room temperature for 2 h. To the system were added specific primary antibodies and incubated overnight at 4° C. Then the membrane was washed with PBST solution [20 mM Tris-HCl (pH 7.2-7.4), 150 mM NaCl, 0.1% (v/v) Tween 20] at room temperature three times, 15 min/time. To the system were added Horseradish peroxidase-labeled secondary antibodies and incubated at room temperature on a shaker with gentle shaking for 2 h. After washing with PBST solution three times, the system was exposed, developed and fixed after SuperSignal West Dura Chemiluminescent Substrate (Pierce Inc, Rochford, IL) was used for color. The results were shown in FIG. 1, in which there were 12 lanes the band shade and size of which indicated the corresponding protein concentration levels. […] MK2206 was an Akt phosphorylation inhibitor developed by Merck, and was currently in phase II clinical trial, showing good therapeutic effects in a variety of tumors.
Background: A western blot detects proteins with antibodies after separation by electrophoresis.

The subject of experiment [3] is SGK(h). The experiment is described as follows: Tumor-associated kinase inhibition test. It counts as biochemical, human. Particulars: 10 μM. From the text: (§1) Eurofins Pharma Discovery Services UK Limited completed and reported this experiment.
Experiment [4] concerns the target T1, Itk(h) (Homo sapiens, UniProt Q08881).
T1 construct: purchased Eurofins Pharma Discovery Services UK Limited (contract testing)
Kind of experiment: Tumor-associated kinase inhibition test. In kind it is biochemical. The following applies: read-out: Inhibitory rate (%).
Source text: as §1

In experiment [5] the target is T2, JAK2(h) (Homo sapiens, UniProt O60674).
T2 construct: purchased Eurofins Pharma Discovery Services UK Limited (contract testing)
T2 sequence (O60674 whole entry): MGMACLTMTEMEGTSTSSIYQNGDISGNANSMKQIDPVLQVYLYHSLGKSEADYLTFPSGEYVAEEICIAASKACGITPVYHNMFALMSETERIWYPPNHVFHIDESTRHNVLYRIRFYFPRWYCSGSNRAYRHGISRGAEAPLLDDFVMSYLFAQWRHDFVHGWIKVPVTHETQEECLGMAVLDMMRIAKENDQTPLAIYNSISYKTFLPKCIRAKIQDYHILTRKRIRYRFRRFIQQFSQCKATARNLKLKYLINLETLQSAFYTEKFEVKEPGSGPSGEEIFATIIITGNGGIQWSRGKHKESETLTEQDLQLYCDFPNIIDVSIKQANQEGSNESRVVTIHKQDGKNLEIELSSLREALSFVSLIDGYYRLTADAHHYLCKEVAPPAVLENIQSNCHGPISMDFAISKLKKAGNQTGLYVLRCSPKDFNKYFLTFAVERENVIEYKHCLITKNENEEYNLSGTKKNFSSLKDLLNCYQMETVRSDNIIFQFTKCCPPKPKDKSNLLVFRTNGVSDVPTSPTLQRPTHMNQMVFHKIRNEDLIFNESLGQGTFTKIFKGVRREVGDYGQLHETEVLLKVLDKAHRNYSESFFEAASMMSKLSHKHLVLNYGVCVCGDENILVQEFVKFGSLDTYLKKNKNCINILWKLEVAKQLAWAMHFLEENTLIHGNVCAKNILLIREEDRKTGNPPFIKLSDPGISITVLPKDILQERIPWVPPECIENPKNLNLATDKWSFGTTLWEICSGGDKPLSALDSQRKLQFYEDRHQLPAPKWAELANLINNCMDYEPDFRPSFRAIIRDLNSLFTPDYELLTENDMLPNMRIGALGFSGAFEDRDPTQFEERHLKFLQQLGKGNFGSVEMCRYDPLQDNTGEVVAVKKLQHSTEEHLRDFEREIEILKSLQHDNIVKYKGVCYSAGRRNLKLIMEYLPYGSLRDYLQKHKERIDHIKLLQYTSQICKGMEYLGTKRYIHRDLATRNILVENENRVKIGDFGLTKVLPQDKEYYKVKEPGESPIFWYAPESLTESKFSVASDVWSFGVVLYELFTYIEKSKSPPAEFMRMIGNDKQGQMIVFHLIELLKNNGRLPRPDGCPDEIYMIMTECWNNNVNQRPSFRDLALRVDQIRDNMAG
Kind of experiment: Tumor-associated kinase inhibition test. Particulars: read-out: Inhibitory rate (%). It counts as biochemical.
Source text: as §1

For experiment [6], the system named is more than 20 tumor cell lines. Kind of experiment: Proliferation of more than 20 tumor cell lines (FIG. 2). It counts as cell-based. Particulars: FIG. 2, in words. The procedure: At a certain density cells were seeded in 96-well plates, and adhered overnight. The medium was discarded after incubating cells with compounds to be tested for 72 h, then 100μL/well trichloroacetic acid (TCA) was added to fix cells at 4° C. for 2h. After that the fixing solution was discarded. Cells were gently washed 5 times with distilled water, dried at room temperature. Cells were stained with 4 mg/mL SRB staining solution (100 μL/well) at room temperature for 15min. The staining solution was discarded, and cells were washed five times with 1% acetic acid (HAC) and dried at room temperature. To the plate tris base buffer (10 mM) was added at 150 μL/well and placed at room temperature for 15min. The OD values were measured at 540 nm wavelength in a microplate reader. Inhibitory rate (%)=(OD valuecontrol wells−OD valuedrugs treated wells)/OD valuecontrol wells×100%.
In the present invention the inhibition of a representative compound FD162 to the proliferation of more than 20 tumor cell lines were tested, and the experimental methods were the same as that described in Example 2.

T1 sequence (Q08881 whole entry): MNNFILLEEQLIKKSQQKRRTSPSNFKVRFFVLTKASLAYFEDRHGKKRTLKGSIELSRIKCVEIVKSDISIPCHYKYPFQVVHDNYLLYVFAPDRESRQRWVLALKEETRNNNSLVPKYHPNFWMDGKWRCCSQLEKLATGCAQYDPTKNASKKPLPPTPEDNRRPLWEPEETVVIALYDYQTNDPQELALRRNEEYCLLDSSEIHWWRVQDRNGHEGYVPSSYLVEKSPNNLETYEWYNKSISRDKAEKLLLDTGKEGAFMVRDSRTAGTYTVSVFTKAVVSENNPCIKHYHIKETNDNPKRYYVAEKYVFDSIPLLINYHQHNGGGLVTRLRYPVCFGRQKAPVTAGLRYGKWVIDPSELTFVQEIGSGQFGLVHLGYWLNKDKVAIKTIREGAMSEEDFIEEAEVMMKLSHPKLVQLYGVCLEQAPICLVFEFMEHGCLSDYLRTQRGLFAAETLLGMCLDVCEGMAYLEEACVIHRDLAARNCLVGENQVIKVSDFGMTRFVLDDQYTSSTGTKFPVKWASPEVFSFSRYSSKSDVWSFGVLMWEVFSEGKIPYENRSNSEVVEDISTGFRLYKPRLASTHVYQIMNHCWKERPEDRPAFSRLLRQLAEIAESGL

On to `C=C(C)n1c(=O)n(C(C)=O)c2ncc(Br)cc21` [FD162], for which the “Inhibitory rate % (Akt phosphorylation)” value in experiment [1] amounted to 91%. The “Effect on Akt phosphorylation level (p-Akt S473 band)” value in experiment [2] is reported as “significantly reduce the Akt phosphorylation level”; in experiment [2] (listed as FD3), “comparable effects to MK2206”. For the same molecule, the “Inhibitory rate (%)” value in experiment [3] is on record as −4%. Besides, the inhibition at 10 µM in experiment [4] is -7%; in experiment [5], 7%. In experiment [6], the “Inhibition of proliferation of tumor cell lines” value was “widespread inhibitory effects”.
